Article PMC3017236 (Clinical cancer research : an official journal of the …, 2010)
Entries after “also recorded” stand apart in the source; their conditions may differ.

How the values were obtained:
[1] = humans; cited from earlier work
[2] = molecular target: T1, organic cation transporter-2 (OCT2) (Homo sapiens, UniProt O15244); assay: Uptake in HEK-293 cells transfected with OCT2 vs empty vector; conditions: HEK-293/OCT2, 5 minutes incubation, 0.5 μg/mL
T1 sequence (O15244 1-555): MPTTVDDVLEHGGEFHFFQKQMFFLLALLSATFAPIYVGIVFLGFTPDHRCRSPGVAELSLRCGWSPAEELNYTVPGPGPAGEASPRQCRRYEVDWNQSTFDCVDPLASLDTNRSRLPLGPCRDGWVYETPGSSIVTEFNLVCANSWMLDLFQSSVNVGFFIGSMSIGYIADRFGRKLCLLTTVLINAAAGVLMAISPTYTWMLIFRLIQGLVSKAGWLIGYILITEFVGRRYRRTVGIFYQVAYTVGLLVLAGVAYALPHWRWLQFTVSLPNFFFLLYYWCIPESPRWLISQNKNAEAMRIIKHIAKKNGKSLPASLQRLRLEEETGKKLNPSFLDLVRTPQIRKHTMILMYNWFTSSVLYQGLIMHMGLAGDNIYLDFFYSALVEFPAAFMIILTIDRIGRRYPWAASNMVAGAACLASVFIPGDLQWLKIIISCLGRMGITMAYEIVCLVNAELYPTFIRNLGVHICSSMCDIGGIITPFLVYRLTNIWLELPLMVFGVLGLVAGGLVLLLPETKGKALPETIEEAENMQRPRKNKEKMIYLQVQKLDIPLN

[3] = molecular target: T2, human BCRP (Homo sapiens, UniProt Q9UNQ0); assay: Intracellular accumulation in Saos2-BCRP cells vs Saos2-pcDNA3.1; conditions: for Effect of elacridar on intracellular accumulation: Saos2-BCRP cells, pre-incubation 30 minutes with elacridar (4 μM); for Intracellular accumulation vs control cells: Saos2-BCRP vs Saos2-pcDNA3.1, 0.5 μg/mL, 37°C
T2 sequence (Q9UNQ0 1-655): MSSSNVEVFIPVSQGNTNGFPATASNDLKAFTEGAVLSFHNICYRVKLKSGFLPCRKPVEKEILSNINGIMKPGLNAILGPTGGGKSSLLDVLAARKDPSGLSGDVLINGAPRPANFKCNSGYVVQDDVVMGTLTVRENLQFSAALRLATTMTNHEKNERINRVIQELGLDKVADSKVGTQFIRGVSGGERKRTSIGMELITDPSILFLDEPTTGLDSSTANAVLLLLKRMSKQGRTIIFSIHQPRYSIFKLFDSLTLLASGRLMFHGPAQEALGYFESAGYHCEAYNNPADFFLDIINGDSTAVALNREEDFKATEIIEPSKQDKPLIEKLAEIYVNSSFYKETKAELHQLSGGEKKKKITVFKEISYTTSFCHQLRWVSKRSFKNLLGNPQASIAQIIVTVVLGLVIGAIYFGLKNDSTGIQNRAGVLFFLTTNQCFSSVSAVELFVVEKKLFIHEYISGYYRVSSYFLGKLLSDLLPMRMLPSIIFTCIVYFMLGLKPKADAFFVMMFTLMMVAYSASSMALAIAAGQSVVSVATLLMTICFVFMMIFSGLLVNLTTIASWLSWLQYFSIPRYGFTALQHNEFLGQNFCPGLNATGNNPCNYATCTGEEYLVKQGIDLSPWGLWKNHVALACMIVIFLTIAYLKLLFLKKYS

[4] = molecular target: T3, human MRP4 (Homo sapiens, UniProt O15439); assay: Intracellular accumulation in Saos2-MRP4 cells vs Saos2-pcDNA3.1; conditions: Saos2-MRP4 vs Saos2-pcDNA3.1, 0.5 μg/mL, 37°C
T3 sequence (O15439 1-1325): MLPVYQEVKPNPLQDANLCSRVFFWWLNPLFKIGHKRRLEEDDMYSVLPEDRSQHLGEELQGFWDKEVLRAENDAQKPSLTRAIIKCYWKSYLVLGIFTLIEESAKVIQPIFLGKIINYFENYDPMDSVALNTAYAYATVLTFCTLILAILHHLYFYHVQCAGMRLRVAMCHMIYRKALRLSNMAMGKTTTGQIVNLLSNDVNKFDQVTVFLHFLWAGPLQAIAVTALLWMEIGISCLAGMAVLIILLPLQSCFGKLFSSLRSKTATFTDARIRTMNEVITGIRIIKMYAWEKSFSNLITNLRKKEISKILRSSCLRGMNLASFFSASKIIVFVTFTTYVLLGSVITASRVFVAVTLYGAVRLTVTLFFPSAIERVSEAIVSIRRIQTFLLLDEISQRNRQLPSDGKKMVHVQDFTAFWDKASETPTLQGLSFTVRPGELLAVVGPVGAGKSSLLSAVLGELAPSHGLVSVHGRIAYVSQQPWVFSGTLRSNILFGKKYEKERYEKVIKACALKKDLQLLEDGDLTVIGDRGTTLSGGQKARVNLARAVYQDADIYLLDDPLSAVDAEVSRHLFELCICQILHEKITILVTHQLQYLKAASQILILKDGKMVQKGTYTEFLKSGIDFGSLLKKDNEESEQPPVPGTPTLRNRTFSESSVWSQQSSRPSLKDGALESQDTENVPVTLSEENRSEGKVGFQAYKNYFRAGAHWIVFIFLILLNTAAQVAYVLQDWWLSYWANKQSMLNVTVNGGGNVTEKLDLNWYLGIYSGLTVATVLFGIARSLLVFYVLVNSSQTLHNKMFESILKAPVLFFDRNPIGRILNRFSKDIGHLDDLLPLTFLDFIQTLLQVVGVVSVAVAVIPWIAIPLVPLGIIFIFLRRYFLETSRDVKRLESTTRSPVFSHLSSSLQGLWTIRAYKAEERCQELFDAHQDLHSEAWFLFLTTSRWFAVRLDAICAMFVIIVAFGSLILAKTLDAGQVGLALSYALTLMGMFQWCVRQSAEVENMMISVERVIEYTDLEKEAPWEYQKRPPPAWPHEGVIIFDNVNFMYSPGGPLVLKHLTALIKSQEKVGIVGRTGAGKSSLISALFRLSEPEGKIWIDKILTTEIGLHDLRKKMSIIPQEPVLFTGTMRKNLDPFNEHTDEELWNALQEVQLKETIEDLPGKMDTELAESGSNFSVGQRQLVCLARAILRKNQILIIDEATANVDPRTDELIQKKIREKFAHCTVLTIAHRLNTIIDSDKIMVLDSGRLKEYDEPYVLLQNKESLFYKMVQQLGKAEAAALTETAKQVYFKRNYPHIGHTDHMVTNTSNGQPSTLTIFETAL

Compound	Systemic exposure relative to that of erlotinib [1]	Uptake vs empty vector HEK-293 cells [2]	Effect of elacridar on intracellular accumulation [3]	Intracellular accumulation vs control cells [3]	Intracellular accumulation vs control cells [4]	Renal clearance component as share of overall elimination [1]	Uptake vs empty vector HEK-293 cells ([2]; listed as Erlotinib)
C#Cc1cccc(Nc2ncnc3cc(OCCOC)c(OCCO)cc23)c1 [OSI-420]	10-20%	significantly increased	significantly increased	significantly lower; also recorded: significantly reduced	did not show a significant difference		
C#Cc1cccc(Nc2ncnc3cc(OCCOC)c(OCCOC)cc23)c1 [erlotinib, Erlotinib]		significantly increased	significantly increased	significantly lower; also recorded: significantly reduced	did not show a significant difference	~ 10%	higher
